For one assay, the system named is MDA-MB-231 cells. Put plainly: Inhibition of proliferation of triple-negative breast cancer cells, CellTiter-Glo. It counts as cell-based. Conditions: Homo sapiens, 120 h; MDA-MB-231, cultured for 5 days. In short, it runs like this: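 MDA-MB-231 cells pre-cultured 24 h (5% CO2, 37 °C), then exposed to compound for 5 days at 12 three-fold dilutions, final 10 μM to 0.05 nM. Viability read by CellTiter-Glo luminescence after 10 min at 37 °C; growth inhibition calculated relative to untreated solvent-control cells.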

In the next assay the test system is SHP-77. Put plainly: Inhibition of proliferation of small cell lung cancer cells, CellTiter-Glo. Conditions: Homo sapiens, SHP77, 120 h; SHP-77, cultured for 5 days. Format: cell-based. The procedure: Specifically, the following test was performed to evaluate the inhibitory activity of the compound according to the present invention against the cell proliferation in the SCLC cells.
To check an inhibitory ability of cell growth in one SCLC cell line, a test was performed as follows. Cells were seeded in 180 μL of a culture broth at a density of 2,000 to 3,000 cells/well in a white clear bottom 96-well plate (Corning) according to the growth ability of each cell, and then cultured for 24 hours under conditions of 5% CO2 and 37° C. Thereafter, the compound was prepared by diluting a 10 mM stock solution three-fold with 100% DMSO at a total of 12 concentrations so that a peak concentration of the compound was in a range of 10 mM to 0.05 μM, and the diluted compound was then diluted in each cell culture medium so that a final concentration of the compound was in a range of 100 μM to 0.5 nM. 20 μL of a diluted solution diluted with a medium was added to the cell solution in which cells were seeded in the 96-well plate on the previous day so that a final concentration of the diluted solution was in a range of 10 μM to 0.05 nM. Each of the cells was cultured for 5 days. To check cell viability, a mixture provided in aCellTiter-Glo® Luminescent Cell Viability Assay Kit (Promega) was added to each of the cultured cell media, and cultured for another 10 minutes under a condition of 37° C. Then, a degree of luminescence (fluorescence) was measured. A degree of inhibition of the cell growth according to the treatment concentration of each of the compounds was calculated based on the fluorescence of the solvent control cells which were not treated with the compound. In this case, the concentration of each of the compounds inhibiting 50% of the cell growth was determined to be a GI50 (nM) value, and calculated using Prism (Version 7.01; GraphPad) software.

Another assay deals with T1, TTK (Homo sapiens, UniProt P33981).
T1 sequence (P33981 1-857): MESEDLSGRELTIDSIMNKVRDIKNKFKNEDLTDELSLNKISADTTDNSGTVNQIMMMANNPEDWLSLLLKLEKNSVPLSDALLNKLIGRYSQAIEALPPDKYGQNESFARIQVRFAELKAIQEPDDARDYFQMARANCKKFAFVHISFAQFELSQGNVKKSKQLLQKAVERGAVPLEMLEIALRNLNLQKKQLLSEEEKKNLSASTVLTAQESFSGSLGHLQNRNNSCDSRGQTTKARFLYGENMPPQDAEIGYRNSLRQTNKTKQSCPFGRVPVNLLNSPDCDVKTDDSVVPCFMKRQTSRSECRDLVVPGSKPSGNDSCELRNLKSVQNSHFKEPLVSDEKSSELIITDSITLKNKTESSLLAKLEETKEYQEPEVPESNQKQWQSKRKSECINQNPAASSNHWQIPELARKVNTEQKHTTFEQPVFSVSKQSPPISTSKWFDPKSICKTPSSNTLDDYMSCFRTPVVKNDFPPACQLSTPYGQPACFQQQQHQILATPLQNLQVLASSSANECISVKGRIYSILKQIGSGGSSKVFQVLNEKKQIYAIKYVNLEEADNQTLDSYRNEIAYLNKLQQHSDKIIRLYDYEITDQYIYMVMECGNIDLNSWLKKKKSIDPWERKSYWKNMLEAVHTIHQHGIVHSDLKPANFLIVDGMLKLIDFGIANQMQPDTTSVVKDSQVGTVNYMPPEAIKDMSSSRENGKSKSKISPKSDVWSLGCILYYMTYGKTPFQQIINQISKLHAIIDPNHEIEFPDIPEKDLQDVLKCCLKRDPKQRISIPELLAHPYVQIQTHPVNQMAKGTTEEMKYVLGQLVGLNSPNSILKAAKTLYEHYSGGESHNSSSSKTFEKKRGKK
Nature of the assay: TTK enzyme activity, ADP-Glo kinase assay. It counts as biochemical. Also on record: purchased SignalChem T20-10G. To be noted: purified human TTK, ATP 10 μM, 25° C., 2 hours. In short, it runs like this:
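Purified human TTK (25 ng) incubated with 10 μM ATP and substrate (0.2 μg) for 2 h at 25 °C in Tris-HCl pH 7.4, MgCl2, BSA, DTT buffer. ADP formation read by ADP-Glo; inhibition calculated against untreated solvent control.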

Broadly, the GI50 is the concentration giving 50% growth inhibition. Higher therefore signals less potent growth inhibition. As usually defined, the IC50 is the concentration at which inhibition is half-maximal. Turning to `COc1cc(-c2ccnn2C)c(F)cc1Nc1nc(NC2CCCCC2)c2c(C#N)c[nH]c2n1` [Example 105, 4-(cyclohexylamino)-2-((5-fluoro-2-methoxy-4-(1-methyl-1H-pyrazol-5-yl)phenyl)amino)-7H-pyrrolo[2,3-d] pyrimidine-5-carbonitrile], the GI50 with MDA-MB-231 cells and with SHP-77 was 0.1 to 1 µM throughout. The molecule also showed a concentration for half-maximal inhibition (IC50) at TTK of 0.05 to 0.2 µM.
Regarding `COc1cc(-c2ccnn2C)ccc1Nc1nc(NC2CCOCC2)c2c(C(F)(F)F)c[nH]c2n1` [Example 106, N^2-(2-methoxy-4-(1-methyl-1H-pyrazol-5-yl)phenyl)-N^4-(tetrahydro-2H-pyran-4-yl)-5-(trifluoromethy1)-7H-pyrrolo[2,3-d] pyrimidine-2,4-diamine], the concentration for 50% growth inhibition (GI50) in the assay on MDA-MB-231 cells and with SHP-77 was below 0.1 µM throughout. The molecule also came in with an IC50 on TTK of 0.05 to 0.2 µM.
As for `Cn1nccc1-c1ccc(Nc2nc(NC3CCOCC3)c3c(C(F)(F)F)c[nH]c3n2)c2c1OCCO2` [Example 107, N^2-(8-(1-methyl-1H-pyrazol-5-yl)-2,3-dihydrobenzo[b][1,4]dioxin-5-yl)-N^4-(tetrahydro-2H-pyran-4-yl)-5-(trifluoromethyl)-7H-pyrrolo[2,3-d] pyrimidine-2,4-diamine], the 50% growth inhibitory concentration (GI50) with MDA-MB-231 cells and with SHP-77 was below 0.1 µM in each case. Further, the concentration for half-maximal inhibition (IC50) against TTK was in the range of 0.05 to 0.2 µM.
As to `O=C1CCCN1c1ccc(Nc2nc(NC3CCOCC3)c3c(C(F)(F)F)c[nH]c3n2)c2c1OCCO2` [Example 108, 1-(8-((4-((tetrahydro-2H-pyran-4-yl)amino)-5-(trifluoromethyl)-7H-pyrrolo[2,3-d]pyrimidin-2-yl)amino)-2,3-dihydrobenzo[b][1,4]dioxin-5-yl)pyrrolidin-2-one], the GI50 with MDA-MB-231 cells and in the assay on SHP-77 was 0.1 to 1 µM in each case. The molecule also showed an IC50 at TTK below 0.05 µM.
On to `Cn1nccc1-c1ccc(Nc2nc(NC3CCOC(C)(C)C3)c3c(C#N)c[nH]c3n2)c2c1OCCO2` (stereo not drawn) [Example 109, 4-((2,2-dimethyltetrahydro-2H-pyran-4-yl)amino)-2-((8-(1-methyl-1H-pyrazol-5-yl)-2,3-dihydrobenzo[b][1,4]dioxin-5-yl)amino)-7H-pyrrolo[2,3-d] pyrimidine-5-carbonitrile], for which the 50% growth inhibitory concentration (GI50) in the assay with MDA-MB-231 cells and in the assay on SHP-77 was below 0.1 µM in each case. The molecule further came in with a 50% inhibitory concentration (IC50) against TTK below 0.05 µM.
On to `COc1cc(-c2ccnn2C)ccc1Nc1nc(NC2CCC(F)(F)C2)c2c(C#N)c[nH]c2n1` (stereo not drawn) [Example 110, 4-((3,3-difluorocyclopentyl)amino)-2-((2-methoxy-4-(l-methyl-1H-pyrazol-5-yl)phenyl)amino)-7H-pyrrolo[2,3-d] pyrimidine-5-carbonitrile], for which the GI50 in the assay on MDA-MB-231 cells and with SHP-77 was below 0.1 µM throughout. At TTK, the 50% inhibitory concentration (IC50) is below 0.05 µM.
Regarding `COc1cc(-c2ccnn2C)ccc1Nc1nc(C2CC2)c2c(C#N)c[nH]c2n1` [Example 111, 4-cyclopropyl-2-((2-methoxy-4-(1-methyl-1H-pyrazol-5-yl)phenyl)amino)-7H-pyrrolo[2,3-d] pyrimidine-5-carbonitrile], the 50% growth inhibitory concentration (GI50) with MDA-MB-231 cells and with SHP-77 was below 0.1 µM in each case. At TTK, the IC50 was below 0.05 µM.
Turning to `Cn1nccc1-c1ccc(Nc2nc(C3CC3)c3c(C#N)c[nH]c3n2)c2c1OCCO2` [Example 112, 4-cyclopropyl-2-((8-(1-methyl-1H-pyrazol-5-yl)-2,3-dihydrobenzo[b][1,4]dioxin-5-yl)amino)-7H-pyrrolo[2,3-d] pyrimidine-5-carbonitrile], the 50% growth inhibitory concentration (GI50) is 0.1 to 1 µM with MDA-MB-231 cells and below 0.1 µM with SHP-77. The molecule further displayed a concentration for half-maximal inhibition (IC50) against TTK below 0.05 µM.
As to `COc1cc(-c2ccnn2C)ccc1Nc1nc(NC2CCCC2)c2cc[nH]c2n1` [Example 113, N^4-cyclopentyl-N^2-(2-methoxy-4-(1-methyl-1H-pyrazol-5-yl)phenyl)-7H-pyrrolo[2,3-d] pyrimidine-2,4-diamine], the GI50 in the assay on MDA-MB-231 cells and in the assay on SHP-77 was 0.1 to 1 µM throughout. On TTK, the IC50 is 0.05 to 0.2 µM.
For `Cn1nccc1-c1ccc(Nc2nc(NC3CCCC3)c3cc[nH]c3n2)c2c1OCCO2` [Example 114, N^4-cyclopentyl-N^2-(8-(1-methyl-1H-pyrazol-5-yl)-2,3-dihydrobenzo[b][1,4]dioxin-5-yl)-7H-pyrrolo[2,3-d] pyrimidine-2,4-diamine], the concentration for 50% growth inhibition (GI50) in the assay on MDA-MB-231 cells and in the assay on SHP-77 was 0.1 to 1 µM in each case. On TTK, this molecule showed an IC50 below 0.05 µM.
As for `COc1cc(-c2ccnn2C)ccc1Nc1nc(NC2CCOC(C)(C)C2)c2c(C#N)c[nH]c2n1` (stereo not drawn) [Example 115, 4-((2,2-dimethyltetrahydro-2H-pyran-4-yl)amino)-2-((2-methoxy-4-(1-methyl-1H-pyrazol-5-yl)phenyl)amino)-7H-pyrrolo[2,3-d] pyrimidine-5-carbonitrile], the GI50 with MDA-MB-231 cells and in the assay with SHP-77 was below 0.1 µM in each case. The IC50 against TTK was below 0.05 µM.
Take `Cn1nccc1-c1ccc(Nc2nc(NC3CCC(F)(F)C3)c3c(C#N)c[nH]c3n2)c2c1OCCO2` (stereo not drawn) [Example 116, 4-((3,3-difluorocyclopentyl)amino)-2-((8-(1-methyl-1H-pyrazol-5-yl)-2,3-dihydrobenzo[b][1,4]dioxin-5-yl)amino)-7H-pyrrolo[2,3-d] pyrimidine-5-carbonitrile]: the 50% growth inhibitory concentration (GI50) in the assay on MDA-MB-231 cells and in the assay on SHP-77 was below 0.1 µM throughout. For the same molecule, the half-maximal inhibitory concentration (IC50) against TTK was below 0.05 µM.
On to `COc1cc(-c2nncn2C)ccc1Nc1nc(NC2CCOCC2)c2c(C(F)(F)F)c[nH]c2n1` [Example 117, N^2-(2-methoxy-4-(4-methyl-4H-1,2,4-triazol-3-yl)phenyl)-N^4-(tetrahydro-2H-pyran-4-yl)-5-(trifluoromethyl)-7H-pyrrolo[2,3-d] pyrimidine-2,4-diamine], for which the 50% growth inhibitory concentration (GI50) with MDA-MB-231 cells and with SHP-77 was below 0.1 µM throughout. The IC50 against TTK is below 0.05 µM.
In the case of `COc1cc(-c2cnn(C)c2)ccc1Nc1nc(NC2CCOCC2)c2c(C(F)(F)F)c[nH]c2n1` [Example 118, N^2-(2-methoxy-4-(1-methyl-1H-pyrazol-4-yl)phenyl)-N^4-(tetrahydro-2H-pyran-4-yl)-5-(trifluoromethy1)-7H-pyrrolo[2,3-d] pyrimidine-2,4-diamine], the GI50 with MDA-MB-231 cells and in the assay on SHP-77 was below 0.1 µM throughout. The same molecule gave an IC50 at TTK below 0.05 µM.
On to `COc1cc(Nc2nc(NC3CCOCC3)c3c(C#N)c[nH]c3n2)ccc1-c1ccnn1C` [Example 119, 2-((3-methoxy-4-(1-methyl-1H-pyrazol-5-yl)phenyl)amino)-4-((tetrahydro-2H-pyran-4-yl)amino)-7H-pyrrolo[2,3-d] pyrimidine-5-carbonitrile], for which the GI50 in the assay on MDA-MB-231 cells and in the assay with SHP-77 was below 0.1 µM in each case. Further, the IC50 against TTK is below 0.05 µM.
Take `COc1cc(Nc2nc(NC3CCCC3)c3c(C#N)c[nH]c3n2)ccc1-c1ccnn1C` [Example 120, 4-(cyclopentylamino)-2-((3-methoxy-4-(1-methyl-1H-pyrazol-5-yl)phenyl)amino)-7H-pyrrolo[2,3-d] pyrimidine-5-carbonitrile]: the 50% growth inhibitory concentration (GI50) with MDA-MB-231 cells and in the assay with SHP-77 was 0.1 to 1 µM in each case. On TTK, this molecule came in with an IC50 of 0.05 to 0.2 µM.
